Test results taken from patent publication US10775375B2, “Methods for identifying modulators of calcium-sensing receptors” (MARS, INCORPORATED, priority 2014, dated 2020).
Where two headings read alike, the source gives them in different places.

Target: T1, feline calcium-sensing receptor (fCaSR) (Felis catus, UniProt C7FF08, X1044R)
T1 sequence (C7FF08 1-1081 X1044R): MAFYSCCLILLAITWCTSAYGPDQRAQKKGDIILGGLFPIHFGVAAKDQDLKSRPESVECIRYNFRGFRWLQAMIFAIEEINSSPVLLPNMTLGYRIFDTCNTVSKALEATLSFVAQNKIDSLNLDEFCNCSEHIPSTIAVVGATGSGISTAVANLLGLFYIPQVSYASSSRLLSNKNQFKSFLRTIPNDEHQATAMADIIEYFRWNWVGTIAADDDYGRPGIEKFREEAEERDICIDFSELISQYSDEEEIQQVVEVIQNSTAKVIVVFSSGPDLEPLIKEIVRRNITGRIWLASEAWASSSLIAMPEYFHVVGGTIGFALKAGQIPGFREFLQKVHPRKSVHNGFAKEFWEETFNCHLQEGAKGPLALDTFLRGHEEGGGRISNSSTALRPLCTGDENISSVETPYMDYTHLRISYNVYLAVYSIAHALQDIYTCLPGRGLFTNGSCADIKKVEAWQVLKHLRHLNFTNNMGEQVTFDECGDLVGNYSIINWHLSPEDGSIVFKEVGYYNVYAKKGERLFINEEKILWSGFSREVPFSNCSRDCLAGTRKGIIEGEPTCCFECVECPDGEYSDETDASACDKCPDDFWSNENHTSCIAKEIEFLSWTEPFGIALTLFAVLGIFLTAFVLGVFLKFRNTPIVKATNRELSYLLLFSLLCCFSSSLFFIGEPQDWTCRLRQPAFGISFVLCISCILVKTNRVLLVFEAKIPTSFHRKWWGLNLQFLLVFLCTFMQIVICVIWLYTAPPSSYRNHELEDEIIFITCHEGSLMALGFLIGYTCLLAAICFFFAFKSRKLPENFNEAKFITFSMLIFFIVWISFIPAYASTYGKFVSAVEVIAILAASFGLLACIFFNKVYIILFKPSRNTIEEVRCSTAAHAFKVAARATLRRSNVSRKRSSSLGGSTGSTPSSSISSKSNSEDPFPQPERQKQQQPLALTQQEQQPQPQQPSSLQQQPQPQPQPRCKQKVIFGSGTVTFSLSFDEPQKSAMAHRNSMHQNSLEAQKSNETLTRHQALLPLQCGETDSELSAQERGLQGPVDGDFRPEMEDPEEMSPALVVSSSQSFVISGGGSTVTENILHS
Experiment: In vitro cellular luminescence assay for activation of fCaSR (HEK T-Rex/natClytin clone K 5.1, FLIPR Tetra), agonist mode and PAM mode
Assay type: cell-based
Conditions: for CaSR agonists and PAMs (mode of action on CaSR): classification as agonist, PAM or not active
Source text: Summary. The full length coding sequence of the calcium-sensing receptor (CaSR, a GPCR (3, C or Glutamate family), naturally coupled to Gαq/11 and Gαi (ligand-directed signaling)) from Felis catus (fCaSR) having the sequence described by SEQ ID NO: 7 was synthesized and sub-cloned into suitable expression vectors. The cat CaSR expression constructs were stably transfected in two mammalian cell lines, the HEK-natClytin and the HEK T-Rex/natClytin, two cell lines that allow for detection of changes in intracellular calcium levels through luminescence. A pure selected clone (K 5.1) was used to analyze 12 CaSR ligands (including calcium as a reference agonist control) in a high-throughput screening (HTS) multi-plate test for agonist and positive allosteric modulator (PAM) effects.
A final pure selected clone (K 5.1) was analyzed in a HTS multi-plate test for agonist or positive allosteric modulator (PAM) effects of 12 CaSR ligands (including calcium as a reference agonist control). 10.000 cw of K 5.1 were seeded on poly-D-lys coated 384 well MTPs in medium containing 1 μg/mL of Doxycycline. Screening with the 12 ligands (including calcium control) was conducted 24 hours later. […] For each ligand that activated CaSR as an agonist or PAM, the EC50 value of the ligand was determined.
Detection of CaSR receptor activation. Transfected cells were analyzed for a response to a reference agonist (calcium) or various CaSR ligands by detecting Ca^2+ sensitive photoprotein luminescence. The experiments were performed in a 384 well format according to one of the following procedures: • 7.500 cw were plated on poly-D-lys coated 384 well microtiter plates (MTPs). 24 h later, medium was manually discarded and replaced with fresh medium containing 1 μg/mL of Doxycycline. Experiments were then carried out 48 h after seeding. • 10.000 cw were plated on poly-D-lys coated 384 well MTPs in medium containing 1 μg/mL of Doxycycline. Experiments were carried out 24 hrs later.
On the day of the experiment, medium was removed by plate overthrow and tapping on a paper towel. Cells were then incubated for 3-4 hrs at 37° C. with 10 μM coelenterazine dissolved in 2 mM Ca^2+ or Ca^2+-Free Tyrode's Buffer (20 μL). Cells were exposed to calcium control and/or ligand and the luminescence changes over a period of 1 minute (at 35.000 gain of sensitivity) were monitored using a FLIPR® Tetra screening system. For agonist evaluation, a single exposure protocol was applied (ligands 1º injection, 20 μL-2×), whereas for PAM evaluation a double injection protocol was applied as following: • 1° injection: ligands dose-response (20 μL-2×) • 2° injection: Reference agonist EC20 (20 μL-3×) • Data Analysis. FLIPR® Tetra measurements were analysed with Screenworks© software (Molecular Devices, Version 3.0.1.4) and data were exported as Maximum statistics of Absolute Response (RLU) calculated after compound injection. RLU is obtained applying “Subtract Bias on Sample n” (where n=Time point of compound injection). Mean and standard deviation values were calculated on the exported data with Excel software, and then values were used to create sigmoidal dose-response curves (variable slope) or histograms with GraphPad PRISM® software (Version 6). The obtained EC50/IC50 values were used to calculate EC50/[…] values according to the following formula: ECX=[(X/100−X)1/HillSlope]*EC50
Cell lines, Medium and Culture Conditions. The experiments were done using HEK-natClytin or HEK T-Rex/natClytin reporter cell lines that were generated by stable transfection of the photoprotein natClytin into HEK-293 or HEK-293 T-Rex (HEK T-Rex, Invitrogen) cell lines respectively.
For experimental conditions, cells were plated on poly-D-lys coated 384 well MTPs according to one of the following conditions: • 7.500 cw.

Row | Molecule | EC50 [mM] | CaSR agonists and PAMs (mode of action on CaSR) | also measured
1 | NCC1O[C@H](O[C@@H]2C(N)C[C@@H](N)C(O)C2O[C@@H]2O[C@H](CO)C(OC3O[C@@H](CN)C(O)C(O)[C@H]3N)C2O)C(N)C(O)[C@@H]1O (some centres unmarked) [Neomycin] | 10 | Neomycin (agonist) | 
2 | NC(CCC(=O)NC(CS)C(=O)NCC(=O)O)C(=O)O [L-Glutathione, L-Glutathione (γ-Glu-Cys-Gly)] |  | L-Glutathione (agonist) | EC50 (agonist mode, single injection, HEK T-Rex/natClytin-fCaSR clone K 5.1, photoprotein luminescence, tested up to the MAX dose in c1/c2, read-out: Agonist EC50): 8.2 mM
3 | NCCCNCCCCNCCCN [Spermine] |  | Spermine (agonist) | 
4 | O.O.[Ca+2].[Cl-].[Cl-] [Calcium (Ca^2+), Calcium chloride (dihydrate)] |  | (agonist) | 
5 | C[C@@H](NCCCc1cccc(C(F)(F)F)c1)c1cccc2ccccc12 [Cinacalcet] | 0.001 | Cinacalcet (PAM) | CaSR agonists and PAMs (mode of action on CaSR) (listed as cinacalcet): activated CaSR as PAMs
6 | NCCCCNCCCN [Spermidine] | 1.3 | Spermidine (agonist) | 
7 | Magnesium chloride (hexahydrate) [Magnesium (Mg^2+)] |  | (agonist) | 
8 | Poly-L-Arginine |  | Poly-L-Arginine (agonist) | Agonist EC50 (agonist mode, single injection, HEK T-Rex/natClytin-fCaSR clone K 5.1, MAX dose 60 μg/mL): 4.6 µg/mL
9 | Calindol |  | Calindol (PAM) | CaSR agonists and PAMs (mode of action on CaSR) (listed as calindol): activated CaSR as PAMs
10 | NCCCCN [Putrescine] |  | Putrescine (not active) | 
